Experimental data taken from patent US20250041296A1, “NOVEL DOSING REGIMENS FOR MDM2 INHIBITORS” (NOVARTIS AG, priority 2018, published 2025).

Assays:
p53 = conditions: preclinical cell and in vivo models; cited from earlier work
[1] = system: solid and hematological tumors; conditions: versus original day 1 to day 7 regimen of a 28-day cycle; cited from earlier work
[2] = Population PK/PD model parameter estimates (NLME, Monolix) from the CHDM201X2101 dataset; set-up: species or system human; conditions: method=FIXED
From the text: For model building the PK/PD dataset of CHDM201X2101 were used and an NLME estimation (Monolix 4.3.2) performed. The model structure and the parameter estimates are provided below. This provided inputs for R/shiny. The m/xR package were used for simulation of longitudinal data from the MLXTRAN model.

R/R AML subjects = experiment: Clinical study CHDM201X2101, single agent HDM201; format: in vivo, human
Protocol: HDM201 is a novel investigational agent with promising single-agent activity in AML patients. Study CHDM201X2101 investigated several dose regimens of single agent HDM201 in R/R AML subjects. CR/CRi rate of 24% was reported in subjects with R/R AML who received oral HDM201 at a dose of 45 mg from D1 to D7 every 4 weeks (Q4W) (Regimen 2C), which was the dose assessed as recommended dose for expansion (RDE).
The starting dose and regimen selection for HDM201 in dose escalation is based on the previous Phase I dose escalation and expansion study of HDM201 as a single-agent in subjects with R/R AML ([HDM201X2101]). In this Phase I study, HDM201 was investigated in subjects with solid tumors and hematological malignancies. A total of 27 subjects with hematological malignancies (26 AML and one acute lymphoblastic leukemia (ALL)) have been enrolled across various regimens. […] According to HDM201X2101, Regimen 2C was determined to be the recommended Phase 2 dose (RP2D) for further development of HDM201 as a single-agent.
With this regimen, the RD has been determined as 45 mg HDM201 in hematological tumors in the CHDM201X2101 study. […] Proceedings of the American Association for Cancer Research Annual Meeting 2017; 2017 Apr. 1-5; Washington, DC. Philadelphia (PA): AACR; Cancer Res 2017; 77(13 Suppl):Abstract nr CT154. doi:10.1158/1538-7445.AM2017-CT154).

AML/MDS subjects = experiment: Clinical study CPDR001X2105, MBG453 single agent; format: in vivo, human; conditions: 400 mg Q2W and 800 mg Q4W
Protocol: (§1) The MBG453 single agent RD has been determined as 800 mg Q4W in solid tumor subjects primarily based on PK and PKPD modeling of target (TIM-3) occupancy. MBG453 at the dose level of 800 mg Q4W was predicted to give sustained target occupancy of 90% in tumor in >90% of subjects. […] MBG453 single agent is also being evaluated in AML/MDS subjects in the CPDR001X2105 study with Q4W and Q2W regimens.
The RD in AML/MDS has not yet been determined, however it is not expected to be different from solid tumors, based on preliminary PK and safety data.

solid tumor subjects = experiment: Clinical study CMBG453X2101, MBG453 single agent; format: in vivo, human; conditions: any dose up to 1200 mg Q2W or Q4W
Protocol: as §1

[3] = R/R AML subjects, single agent HDM201
[4] = subjects treated at RDE (Regimen 2C: 45 mg D1 to D7 Q4W)

Row | pop_Cl [2] | pop_V [2] | pop_ka [2] | tumor lysis syndrome (TLS) Grade 3 or 4 (R/R AML subjects; [4]) | Molecule | effect on p53 function (p53) | anti-tumor activity when administration is shortened to 5 consecutive days [1] | most common grade 3/4 AE reported as suspected to study treatment (R/R AML subjects; 27 subjects with hematological malignancies across various regimens) | CR/CRi rate (R/R AML subjects; R/R AML subjects, oral 45 mg D1 to D7 Q4W (Regimen 2C)) [%] | duration of responses (R/R AML subjects; [3]) | time at which response was seen (R/R AML subjects; [3]) | gastro-intestinal AEs, grade (R/R AML subjects; [4]) | tolerability (AML/MDS subjects) | safety signal (solid tumor subjects)
1 | pop_Cl = 6.18 [method=FIXED], | pop_V = 119 [method=FIXED], | pop_ka = 0.489 [method=FIXED], | about 10% | COc1ncc(-c2nc3c(n2C(C)C)[C@H](c2ccc(Cl)cc2)N(c2cc(Cl)cn(C)c2=O)C3=O)c(OC)n1 [HDM201, (S)-5-(5-Chloro-1-methyl-2-oxo-1,2-dihydro-pyridin-3-yl)-6-(4-chloro-phenyl)-2-(2,4-dimethoxy-pyrimidin-5-yl)-1-isopropyl-5,6-dihydro-1H-pyrrolo[3,4-d]imidazol-4-one] | restore p53 function | relevant anti-tumor activity | thrombocytopenia, neutropenia, anemia and Tumor Lysis Syndrome (TLS) | 24 | up to 152 days | within the first two cycles | only low grade | – | –
2 | – | – | – | – | MBG453: TIM-3 inhibitor MBG453 (Novartis), given by i.v. infusion | – | – | – | – | – | – | – | well tolerated | No significant safety signal
